Measurements as given in patent publication US20020115642A1, “Beta-lactam antibiotics” (priority 2000, published 2002).
In brackets after ≈: the same amount, converted by molar mass.

Legend:
E. cloacae = experiment: Susceptibility testing (MIC, modified NCCLS method); type: cell-based, Enterobacter cloacae; conditions: E. cloacae (1)
How it was run: (§1)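 Growth inhibition was scored by optical density increase at 600 nm. Bacteria in broth were added at roughly 1-1.5×10^6 cells/ml to 20 twofold serial dilutions of compound, prepared from water or DMSO stocks. The NCCLS MIC procedure was modified for high throughput.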

P. aeruginosa = experiment: as above; type: cell-based, Pseudomonas aeruginosa
How it was run: as §1

S. pneumoniae = experiment: as above; type: cell-based, Streptococcus pneumoniae; conditions: S. pneumoniae (3)
Method: (§2) The NCCLS (National Committee for Clinical Laboratory Standards) method to determine MIC's of antimicrobial compounds was modified for high-throughput screening. All stocks of tested compounds were prepared in either water or in dimethylsulfoxide (DMSO), depending on the solubility. […] Briefly 20 2-fold serial dilutions of testing compounds from the highest concentration were made in a 384-well microtiter plate. Each well was inoculated with testing bacteria in broth to a final concentration of approximately 1-1.5×10^6 cells/ml. Bacterial growth was determined by the increase of optical density at 600 nm using a microplate reader (Tecan SpectraFluor Plus).

[1] = system: Vancomycin-resistant E. faecalis or E. faecium; experiment: as above; type: cell-based, Enterococcus faecalis, Enterococcus faecium; conditions: VRE (5)
Method: as §2

H. influenzae = experiment: as above; type: cell-based, Haemophilus influenzae; conditions: H. influenzae (4)
Method: as §2

Gram-negative species = experiment: MIC comparison with reference antibiotics, Gram-negative species; type: cell-based
Method: as §2

[2] = type: physicochemical; conditions: 5 h, pH 7.2
Method: Assays were conducted at 37° C. in 100 mM potassium phosphate buffer pH 7.2 with 1 mM EDTA and 0.5 μg/ml TEM-1 β-lactamase. Compound (9) catalysis was determined via fixed time incubations followed by acid quenching. Product formation (triclosan) was determined by integrated peak area of A260 nm following HPLC separation. Hydrolysis product (triclosan) was separated from Compound (9) by use of an HP1100 series HPLC equipped with an Alltech Adsorbosphere HS(C18)5u 150 mm×4.6 mm column. The mobile phase was isocratic containing 55% acetonitrile and 0.1% TFA producing retention times of 20.4 minutes and 24.1 minutes for triclosan and Compound (9), respectively. Quantitation of triclosan was based on the A260 integrated peak area as compared to triclosan standards.
A typical TEM-1 β-lactamase assay is conducted at 37° C. in 1.4 ml of 100 mM potassium phosphate pH 7.2, 1 mM; ethylenediamine tetraacetic acid (EDTA) and 25 nM TEM-1 β-lactamase. A test compound is assayed at several concentrations, for example at 5 and 20 μM. At timed intervals oft=0, 15, 30, 60 and 120 minutes, 200 μl of the assay mixture is withdrawn and added to 8 μl of 10% trifluoracetic acid (TFA) in an high pressure liquid chromatography.(HPLC) microvial. Substrates and products are separated and quantitated via HPLC (described below). […]

E. coli/TEM-1 = experiment: Detection of triclosan released from Compound (9) in bacteria; type: cell-based, Escherichia coli; conditions: E. coli/TEM-1, after five minutes, 100 μM Compound (9)
Method: E coli N and β-lactamase expressing E. coli/TEM-1 were treated with Compound (9) under the condition described in Example 15. Aliquots of culture were sampled at 0, 5 and 15 minutes. The amount of Compound (9) and triclosan were analyzed by HPLC.
Overnight cultures of both wild-type Escherichia coli N and β-lactamase producing strain Escherichia coli/TEM-1 were diluted 100 times with fresh LB medium and cells were grown for 4 hours at 37° C. (shaking at 230 rpm). Cells were then diluted with fresh LB medium containing 100 μM Compound (9) until the OD600 reached 0.2. Aliquots of the culture were sampled at different timed intervals and the cells were pelleted by centrifugation at 10,000×g for 2 minutes at 4° C. The supernatant was removed and combined with 500 μl acetonitrile. The pelleted bacterial cells were resuspended in 100 μl 133 Phosphate Buffer (GIBCO-BRL, pH8.0) and subjected to 3 cycles of freeze-thawing, followed by addition of 500 μl acetonitrile. Both pellet extracts and supernatant were centrifuged at 10,000×g for 2 minutes at 4° C. 550 μl of the resultant supernatant was transferred into a new Eppendorf tube and vacuum-dried. Dried pellets were resuspended in 50 μl H2O and 100 μl acetonitrile, 75 μl of which was analyzed by HPLC.

S. aureus (ATCC#700260) = experiment: Bactericidal assay; type: cell-based; conditions: 0.6 μg/ml
Method: Compound (9) was added in log-phase S. aureus (ATCC#700260) and incubated at 37° C. The final concentration of cells at hour 0 was 1.3×10^6 cells/ml, and Compound (9) was 0.6 μg/mL. […]
Overnight broth cultures of S. aureus (ATCC#700260) were diluted 100 times into liquid medium and allowed to grow to exponential phase (OD600=0.6). Next the bacteria were diluted into fresh medium to give a working concentration of 10^6 cells/ml. Compound (9) was added to a final concentration of 0.6 μg/ml, and the suspension was incubated at 37° C. […] The samples were diluted at 10^−3×, 10^−4× or 10^−5× fold, and plated onto agar plates. The plates were incubated for 24 hours at 37° C. to obtain a viable cell count.

[3] = system: UDP-glucuronosyltransferase; experiment: Glucuronidation assay; type: in vitro ADME, human
Method: Assays were conducted as outlined in Example 15, using 100 μM Compound (9), triclosan or cephalothin incubated with 100 μg human liver microsome at 37° C. for 1 hour. The reactants were analyzed on TLC plate, and glucuronidated compounds were visualized by MolecularDynamics Storm 820.
Glucuronidation assay was performed based on modified procedure from Bansal and Gessner (1980) Anal. Biochem. 109:321-329. Reactions were performed in 50 mM Tris buffer, pH 7.6, containing 10 mM MgCl2, ImM UDPGA, 0.04 μCi of ^14C-UDPGA, 0.1 mM substrate, and 100 μg human liver microsome. The final volume was 100 μL. Reactions were incubated at 37° C. for one hour and the reactants extracted with 200 μL of 100% ethanol. The protein was removed by centrifugation at 12,000×g for 5 minutes in an Eppendorf centrifuige. The supernatant was dried and resuspended in 30 μL of 100% methanol and spotted on a Whatman glass-backed linear k TLC plate. Chromatography was performed in a mixture of 1-butanol/acetone/acetic acid/water (35:35:10:20). The TLC plate was then dried and exposed to phosphor imager overnight, then monitored by imaging (MolecularDynamics Storm 820).

[4] = E. aerogenes, E. cloacae and K. pneumoniae

## O=C(Cc1cccs1)N[C@@H]1C(=O)N2C(C(=O)O)=C(COc3cc(Cl)ccc3Oc3ccc(Cl)cc3Cl)CS[C@H]12 [Compound 9, 3-(2-(2,4-Dichlorophenoxy)-5-chlorophenoxy)methyl-7-(2-thienylacetamido)-3-cephem-4-carboxylic acid]
E. cloacae
  MIC range: 1 µg/mL (≈ 1.6 µM)
E. cloacae; Enterobacter cloacae, read-out: GM* MIC (geometric mean)
  MIC: 1 µg/mL (≈ 1.6 µM)
P. aeruginosa
  activity against P. aeruginosa: no activity
P. aeruginosa; P. aeruginosa (7)
  MIC range: >15.6 µg/mL
P. aeruginosa; Pseudomonas aeruginosa, P. aeruginosa (7), read-out: GM* MIC (geometric mean)
  MIC: > 15.6 µg/mL
S. pneumoniae
  MIC range: 0.06 to 0.5 µg/mL
S. pneumoniae; Streptococcus pneumoniae, read-out: GM* MIC (geometric mean)
  MIC: 0.122 µg/mL (≈ 0.195 µM)
[1]; Enterococcus, read-out: GM* MIC (geometric mean)
  MIC: 10.3 µg/mL (≈ 16.5 µM)
[1]
  MIC range: 8 to 16 µg/mL
H. influenzae
  MIC range: 7.5 to 61 ng/mL
H. influenzae; Haemophilus influenzae, read-out: GM* MIC (geometric mean)
  MIC: 0.015 µg/mL (≈ 0.024 µM)
Gram-negative species; [4]
  fold less active than imipenem: 4 fold
  fold more active than cephalothin or ampicillin: at least 33 fold
Gram-negative species; M. catarrhalis and H. influenzae, geometric mean MIC
  fold stronger than ampicillin and cephalothin: at least 1000 fold
[2]
  stability in TEM-1 blank experiment: stable up to 5 hours
E. coli/TEM-1
  Compound (9) hydrolyzed producing an equimolar amount of triclosan: approximately 80%
S. aureus (ATCC#700260); 6 hours incubation
  decrease of the number of viable cells: 100 fold
S. aureus (ATCC#700260); 24 hour incubation
  decrease of the number of viable cells compared with time 0: 10,000 fold
[3]
  glucuronidation by human liver microsome: not a substrate of UDP-glucuronosyltransferase
